From patent US20240279230A1, “CRYSTALLINE FORMS OF A HER2 INHIBITOR” (Boehringer Ingelheim International GmbH, priority 2022, published 2024)
Entries after “also recorded” stand apart in the source; their conditions may differ.

How the values were obtained:
Format in all cases: physicochemical
[1] = Chemical stability of solid state forms under temperature/humidity stress, related substances by HPLC at 252 nm; design: Impurity I / Impurity A / Impurity B / Impurity C / Impurity D / Impurity E / Impurity F / Impurity G / Impurity H: unit not given here
Text: To do so, control samples are stored refrigerated in the presence of desiccant for the duration of the study and measured simultaneously with stressed samples by HPLC at a wavelength of 252 nm.

[2] = Polymorphic stability of form III and form IV under stress storage, PXRD; settings: 21 days
Description: A Bruker D2 Phaser X-Ray Diffractometer (XRD, EQ-SSRD-XRD-01) can be used for characterizing the samples. Raw results are evaluated using DIFFRAC.EVA (Bruker, V5.0) software. The Kα2 contribution was stripped, and a peak search was performed using peak search parameters (width 0.302 and threshold 1.0).
A test sample (approximately 0.3 g) is representatively subsampled into an agate-type mortar and pestle. Sample is ground for approximately one minute to achieve a fine homogenous powder. Sample is then transferred into a stainless-steel sample holder fitted with a zero-diffraction plate (ZDP). The sample holder is then levelled off with a glass slide to create a flat sample surface level with the sample holder.

[3] = Dynamic Vapor Sorption (DVS) sorption isotherms, hygroscopic behaviour; settings: for Hygroscopicity: DVS classification; for Δm (0-80%), moisture absorbed at 80% RH / Δm (0-90%), maximum water uptake: DVS, 25.0 ±1.0° C.; for Δm (0-90%), maximum water uptake: up to 90% RH; for Hysteresis: between sorption and desorption curves
Description: The methodology for this can be as follows. The mass of the solids is monitored as the relative humidity (RH) was deliberately changed. The RH is cycled twice from 0% to 90% to 0% in 10% steps. The temperature during measurement is kept constantly at (25.0 ±1.0° C.) Each step is held until mass stability was achieved. A camera inside the instrument captured an image at the conclusion of each stage, allowing for the observation of any visual changes in the solid form during the analysis.

[4] = Thermogravimetric Analysis (TGA); settings: 20° C./min
Description: The methodology for this can be as follows. Solid compounds (˜5 mg) are placed in an aluminium pan and sealed. The instrument used for the analysis is a TA Instruments TGA 550. The same sample lots from DSC testing are used for TGA testing. Processing is completed using TRIOS software.

[5] = Control 1, stored refrigerated with desiccant
[6] = Control 2, stored refrigerated with desiccant
[7] = Control 3, stored refrigerated with desiccant

C=CC(=O)NC1CCN(c2ncc3ncnc(Nc4ccc(Oc5ccc6c(c5)ncn6C)c(C)c4)c3n2)CC1 [Form IV, N-{1-[8-({3-methyl-4-[(1-methyl-1H-1,3-benzodiazol-5-yl)oxy]phenyl}amino)-[1,3]diazino[5,4-d]pyrimidin-2-yl]piperidin-4-yl}prop-2-enamide]
Color change after stressing ([1]; 60-90° C., 3-79% RH, up to 21 days): No color changes | Impurity A ([1]; 60° C./75% RH, 17 days): 0.111 | Impurity B ([1]; 60° C./75% RH, 17 days): 0.008 | Impurity C ([1]; 60° C./75% RH, 17 days): 0.066 | Impurity D ([1]; 60° C./75% RH, 17 days): 0.014 | Impurity E ([1]; 60° C./75% RH, 17 days): 0.074 | Impurity F ([1]; 60° C./75% RH, 17 days): 0.012 | Impurity G ([1]; 60° C./75% RH, 17 days): 0.037 | Impurity H ([1]; 60° C./75% RH, 17 days): 0.132 | Impurity I ([1]; 60° C./75% RH, 17 days): 0.012 | Impurity A ([1]; 70° C./62% RH, 17 days): 0.113 | Impurity B ([1]; 70° C./62% RH, 17 days): 0.010 | Impurity C ([1]; 70° C./62% RH, 17 days): 0.065 | Impurity D ([1]; 70° C./62% RH, 17 days): 0.022 | Impurity E ([1]; 70° C./62% RH, 17 days): 0.069 | Impurity F ([1]; 70° C./62% RH, 17 days): 0.013 | Impurity G ([1]; 70° C./62% RH, 17 days): 0.038 | Impurity H ([1]; 70° C./62% RH, 17 days): 0.133 | Impurity I ([1]; 70° C./62% RH, 17 days): 0.012 | Impurity A ([1]; 75° C./41% RH, 17 days): 0.113 | Impurity B ([1]; 75° C./41% RH, 17 days): 0.010 | Impurity C ([1]; 75° C./41% RH, 17 days): 0.072 | Impurity D ([1]; 75° C./41% RH, 17 days): 0.015 | Impurity E ([1]; 75° C./41% RH, 17 days): 0.078 | Impurity F ([1]; 75° C./41% RH, 17 days): 0 | Impurity G ([1]; 75° C./41% RH, 17 days): 0.027 | Impurity H ([1]; 75° C./41% RH, 17 days): 0.129 | Impurity I ([1]; 75° C./41% RH, 17 days): 0.010 | Impurity A ([1]; 75° C./79% RH, 10 days): 0.103 | Impurity B ([1]; 75° C./79% RH, 10 days): 0.010 | Impurity C ([1]; 75° C./79% RH, 10 days): 0.065 | Impurity D ([1]; 75° C./79% RH, 10 days): 0.017 | Impurity E ([1]; 75° C./79% RH, 10 days): 0.073 | Impurity F ([1]; 75° C./79% RH, 10 days): 0.016 | Impurity G ([1]; 75° C./79% RH, 10 days): 0.038 | Impurity H ([1]; 75° C./79% RH, 10 days): 0.130 | Impurity I ([1]; 75° C./79% RH, 10 days): 0.012 | Impurity A ([1]; 80° C./11% RH, 17 days): 0.109 | Impurity B ([1]; 80° C./11% RH, 17 days): 0.009 | Impurity C ([1]; 80° C./11% RH, 17 days): 0.073 | Impurity D ([1]; 80° C./11% RH, 17 days): 0.013 | Impurity E ([1]; 80° C./11% RH, 17 days): 0.086 | Impurity F ([1]; 80° C./11% RH, 17 days): 0 | Impurity G ([1]; 80° C./11% RH, 17 days): 0.033 | Impurity H ([1]; 80° C./11% RH, 17 days): 0.126 | Impurity I ([1]; 80° C./11% RH, 17 days): 0.011 | Impurity A ([1]; 80° C./61% RH, 10 days): 0.111 | Impurity B ([1]; 80° C./61% RH, 10 days): 0.008 | Impurity C ([1]; 80° C./61% RH, 10 days): 0.065 | Impurity D ([1]; 80° C./61% RH, 10 days): 0.021 | Impurity E ([1]; 80° C./61% RH, 10 days): 0.070 | Impurity F ([1]; 80° C./61% RH, 10 days): 0.015 | Impurity G ([1]; 80° C./61% RH, 10 days): 0.039 | Impurity H ([1]; 80° C./61% RH, 10 days): 0.131 | Impurity I ([1]; 80° C./61% RH, 10 days): 0.011 | Impurity A ([1]; 90° C./3% RH, 17 days): 0.104 | Impurity B ([1]; 90° C./3% RH, 17 days): 0.011 | Impurity C ([1]; 90° C./3% RH, 17 days): 0.070 | Impurity D ([1]; 90° C./3% RH, 17 days): 0.018 | Impurity E ([1]; 90° C./3% RH, 17 days): 0.087 | Impurity F ([1]; 90° C./3% RH, 17 days): 0.008 | Impurity G ([1]; 90° C./3% RH, 17 days): 0.050 | Impurity H ([1]; 90° C./3% RH, 17 days): 0.125 | Impurity I ([1]; 90° C./3% RH, 17 days): 0.011 | Impurity A ([1]; 90° C./41% RH, 10 days): 0.112 | Impurity B ([1]; 90° C./41% RH, 10 days): 0.010 | Impurity C ([1]; 90° C./41% RH, 10 days): 0.065 | Impurity D ([1]; 90° C./41% RH, 10 days): 0.021 | Impurity E ([1]; 90° C./41% RH, 10 days): 0.076 | Impurity F ([1]; 90° C./41% RH, 10 days): 0.011 | Impurity G ([1]; 90° C./41% RH, 10 days): 0.044 | Impurity H ([1]; 90° C./41% RH, 10 days): 0.127 | Impurity I ([1]; 90° C./41% RH, 10 days): 0.012 | Impurity A ([1]; 90° C./78% RH, 17 days): 0.098 | Impurity B ([1]; 90° C./78% RH, 17 days): 0.011 | Impurity C ([1]; 90° C./78% RH, 17 days): 0.068 | Impurity D ([1]; 90° C./78% RH, 17 days): 0.015 | Impurity E ([1]; 90° C./78% RH, 17 days): 0.080 | Impurity F ([1]; 90° C./78% RH, 17 days): 0.014 | Impurity G ([1]; 90° C./78% RH, 17 days): 0.043 | Impurity H ([1]; 90° C./78% RH, 17 days): 0.125 | Impurity I ([1]; 90° C./78% RH, 17 days): 0.010 | Impurity A [1, 5]: 0.102 | Impurity B [1, 5]: 0.009 | Impurity C [1, 5]: 0.064 | Impurity D [1, 5]: 0.011 | Impurity E [1, 5]: 0.074 | Impurity F [1, 5]: 0.015 | Impurity G [1, 5]: 0.037 | Impurity H [1, 5]: 0.129 | Impurity I [1, 5]: 0.012 | Impurity A [1, 6]: 0.091 | Impurity B [1, 6]: 0.009 | Impurity C [1, 6]: 0.064 | Impurity D [1, 6]: 0.012 | Impurity E [1, 6]: 0.070 | Impurity F [1, 6]: 0.013 | Impurity G [1, 6]: 0.032 | Impurity H [1, 6]: 0.130 | Impurity I [1, 6]: 0.012 | Impurity A [1, 7]: 0.114 | Impurity B [1, 7]: 0.009 | Impurity C [1, 7]: 0.070 | Impurity D [1, 7]: 0.013 | Impurity E [1, 7]: 0.071 | Impurity F [1, 7]: 0 | Impurity G [1, 7]: 0.023 | Impurity H [1, 7]: 0.129 | Impurity I [1, 7]: 0.012 | Increase in related substances ([1]; accelerated stress conditions, up to 21 days at 90° C./78% RH): no significant increase in any related substance | Chemical stability in the solid state ([1]; up to 21 days at 90° C./78% RH): chemically very stable | Polymorphic stability by PXRD ([2]; open storage 90° C./3% RH): stable and conformed to form IV reference standard; also recorded: neither form underwent phase changes | Polymorphic stability by PXRD ([2]; open storage 90° C./78% RH): stable and conformed to form IV reference standard; also recorded: neither form underwent phase changes | Change in visual appearance during the humidity cycles ([3]; DVS camera images): No change in the visual appearance | Hygroscopicity [3]: slightly hygroscopic | Hygroscopicity ([3]; listed as form IV): slightly hygroscopic | Δm (0-80%), moisture absorbed at 80% RH [3]: 0.4 wt % | Δm (0-80%), moisture absorbed at 80% RH ([3]; listed as form IV): 0.4 wt % | Δm (0-90%), maximum water uptake [3]: 0.5 wt % | Δm (0-90%), maximum water uptake ([3]; listed as form IV): 0.5 wt % | Phase change during DVS experiment ([3]; RH cycled twice 0% to 90% to 0%): no indication of irreversible phase conversion or hydrate formation; also recorded: no irreversible phase changes | Hysteresis [3]: no | Hysteresis ([3]; listed as form IV): lack of hysteresis | TGA change in mass ([4]; Decomposition): 49.938% | TGA onset ([4]; Decomposition): 420.14 °C | TGA change in mass ([4]; Small mass loss event): 1.285% | TGA end ([4]; Small mass loss event): 243.82 °C | TGA onset ([4]; Small mass loss event): 224.60 °C | TGA change in mass ([4]; Small mass loss event, listed as form IV): around 1%
